The values below come from US20250041427A1, “DINUCLEAR PHOSPHANE GOLD(I) COMPLEXES FOR TREATING CANCER” (priority 2023, published 2025).

Read-outs that look alike come from different tables or passages of the source.

For series [1], the system named is MCF-7 cells. Briefly: AlamarBlue cell proliferation assay, MCF-7. Type of series: cell-based, human. The settings on record: 24 hours exposure, mean of three replicates ± standard error. How it is done:
(§1) Human colorectal carcinoma cell line HCT116 and human breast adenocarcinoma cell line MCF-7 were purchased from ATCC. The cells were cultured in Dulbecco's Modified Eagle's Medium (DMVEM) complemented with 10% fetal bovine serum (FBS) at 37° C. (5% CO2 and 95% humidity). 100 µg/mL streptomycin and 100 U/mL penicillin were used in the media to prevent microbial growth. Assays were performed on cells from passages 3-8.
(§2) AlamarBlue® was used to determine the drug-dose response according to the manufacturer's instruction (Thermo Fisher, Waltham, Massachusetts, United States). The samples of complexes were diluted to a working concentration in DMVEM before their exposure to the cancer cells. The cancer cells were cultivated in 96-well plates for 24 hours. The cell culture medium was then removed and the diluted test compounds were added to the wells. The well plates were incubated for 24 hours at 37° C. with 5% CO2. Subsequently, the cell culture medium was removed for the addition of 10% AlamarBlue® (diluted in DMEM) to each well. The plates were incubated for 3 hours at 37° C. protected from light. The cytotoxicity/proliferation was measured using fluorescence spectrophotometry with fluorescence being read at an excitation wavelength of 560 nm and an emission wavelength of 590 nm. To calculate the percentage difference in reduction between treated and control cells in cytotoxicity/proliferation assays, the following formula was used: […]
(§3) The prepared […] complexes 1-4 were evaluated for their inhibition of cell proliferation towards two human cancer cell lines: HCT116 and MCF-7. The cells were treated with a range of concentrations (0.3, 1, 3, 10, 100 μM) of the complexes for 24 hours. The cells viability were then assessed and half maximal inhibitory concentration (IC50) values were calculated thereafter. […] These values are about 6- to 20-fold lower than cisplatin IC50 values.

The next series has as its system HCT116 cells. As to the kind of experiment: AlamarBlue cell proliferation assay, HCT116. The settings on record: for IC50: read-out: Half maximal inhibitory concentration (IC50) HCT116, 24 hours exposure, AlamarBlue, mean of three replicates ± standard error. How it is done: as §1, §2, §3
Series [2] is described as follows: Solution chemistry / stability by UV-Vis spectrophotometry. Type of series: physicochemical. The settings on record: room temperature; complexes 2, 3 in DMSO:H2O (3:7); complex 4 in 100% DMSO and DMSO:H2O (1:1). How it is done:
The solution chemistry of complexes 2, 3, and 4 ([…], 10 mL) was investigated using ultraviolet-visible (UV-Vis) spectrophotometry at room temperature. The studied complexes are partially soluble in aqueous solution. Complexes 2 and 3 were dissolved in the mixture of DMSO:H2O (3:7), where H2O is a co-solvent of DMSO. A UV-Vis experiment was performed initially at time=0 (2 and 3) and at time=24 hours (2′ and 3′) (FIG. 26A). Furthermore, complex 4 was dissolved in 100% DMSO and a mixture of (DMSO:H2O) (1:1), where H2O is co-solvent of DMSO. Further, a UV-Vis experiment was performed initially at time=0 (4) and at time=24 hours.

Another series relates to MCF-7 cancer cell line. The settings on record: value from cited reference; read-out: IC50 MCF-7 (literature complexes); cited from earlier work.
Series [3] concerns glioblastoma (U87-MG) cancer cells. The note with it: cited from earlier work.
Series [4] has as its system prostate (PC-3) cancer cells. The settings on record: PC-3 cells; cited from earlier work.
Another series relates to HCT116 cancer cell line. The settings on record: value from cited reference; read-out: IC50 HCT116 (literature complexes); cited from earlier work.
Series [5] relates to MCF-7 cells. Briefly: Mitochondrial membrane potential (ΔΨm), JC-1 dye. The series is classed as cell-based, human. The note with it: MCF-7, 24 hours. As for the experimental part: MCF-7 cells (1×10^4 cells per well in a 96-well plate) were treated with different concentrations of complexes, and untreated cells were used as a negative control. After treatment for 24 hours, 5,5′,6,6′-tetrachloro-1,1′,3,3′-tetraethylbenzimidazolocarbocyanine iodide (JC-1) dye (Thermo Fisher, Waltham, Massachusetts, United States) was added to each well containing the cells. The staining was performed following the protocol provided by the manufacturer. A fluorescence spectrophotometer was used to measure the fluorescence of JC-1-stained cells, and fluorescence signals in the red and green channels were recorded separately.
To examine the effect of complexes 1-4 on mitochondrial membrane potential (ΔΨm), JC-1 fluorescence dye was used to stain intact and depolarized mitochondria in MCF-7 cells following exposure to the complexes.

Setting [6] is: read-out: Half maximal inhibitory concentration (IC50) MCF-7.

Consider [Au2(Bdbp)(Dppb)]P2F12 [Complex 3], for which the IC50 was 1300 ± 540 nM in the series on MCF-7 cells [1] (setting [6]) and 1800 ± 220 nM in the series on HCT116 cells. For the same molecule, the “increase of cytotoxic effect on lengthening linker from 2 carbons (complex 1) to 4 carbons” value in the series with HCT116 cells (relative to complex 1, FIG. 24A/24E vs 24C/24G (HCT116 and MCF-7)) was “about 4.5 fold”. In addition, the “stability in solution (UV-Vis, time 0 vs 24 hours)” value in series [2] is recorded as “less stability”.
For `[C](#Cc1ccncc1)[Au][PH](CCCC[PH]([Au][C]#Cc1ccncc1)(c1ccccc1)c1ccccc1)(c1ccccc1)c1ccccc1` [[Au2(dppb)(4-ep)2]], in the series on MCF-7 cancer cell line, the IC50 is 2800 ± 600 nM.
As for `N.N.[Cl][Pt][Cl]` [Cisplatin, reference compound], the results for the IC50 with MCF-7 cells [1] (setting [6]) and with HCT116 cells were 21100 ± 1410 nM and 20800 ± 930 nM, respectively.
For [Au2(Bdbp)(Dppp)]P2F12 [Complex 2], the IC50 in the series with MCF-7 cells [1] (setting [6]) stood at 2300 ± 240 nM; in the series with HCT116 cells, 3600 ± 370 nM.
For `COc1cccc(OC)c1[PH]([Au+][PH](c1c(OC)cccc1OC)(c1c(OC)cccc1OC)c1c(OC)cccc1OC)(c1c(OC)cccc1OC)c1c(OC)cccc1OC.F[P-](F)(F)(F)(F)F` [[Au{P(2,6-dimethoxyphenyl)3}2]PF6], the “fold higher cytotoxicity than cisplatin” value in series [3] and in series [4] was 30 fold in each case.
In the case of “Chlorotriphenylposphine-1,3-bis(diphenylphosphino)propanegold(I) [[Au(dppp)(PPh3)Cl]]”, in the series on HCT116 cancer cell line, the IC50 was 4170 nM.
Turning to [Au2(Bdbp)(Dpma)]P2F12 [Complex 4], the IC50 was 1200 ± 320 nM in the series on MCF-7 cells [1] (listed as 4, read-out: Half maximal inhibitory concentration (IC50) MCF-7); 1800 nM with MCF-7 cells [1] (listed as complex 4, read-out: Half maximal inhibitory concentration (IC50) MCF-7); 930 nM in the series with HCT116 cells. The “effect on mitochondrial membrane potential (ΔΨm) at 2.5 μM” value in the series with MCF-7 cells [5] is recorded as “most reduction of ΔΨm”. The “stability in solution (UV-Vis, time 0 vs 24 hours)” value in series [2] is listed as “high stability”.
For [Au2(Bdbp)(Dppe)]P2F12 [Complex 1], the values for the IC50 in the series with MCF-7 cells [1] (setting [6]) and in the series on HCT116 cells were 7900 nM and 8200 nM, respectively. For the same molecule, the “effect on mitochondrial membrane potential (ΔΨm) at 2.5 μM” value with MCF-7 cells [5] is given as “least reduction of ΔΨm”.
